Test results published in patent publication EP1488698A1, “Compositions for descreasing intracellular inositol trisphosphate concentration and uses thereof” (priority 1995, dated 1997).
Marks after values point to notes of the source that are not given here.

Key:
cultured neurons = assay: Lysosphingolipid content of cultured neurons by NBDZF fluorescence tagging; type: cell-based, chick; conditions: following exposure to 50 µM lysosphingolipid for 1 hour
From the text: Agonist-binding to metabotropic receptors influences the levels of lysosphingolipid in neuronal membranes. However, there is no convenient methodology available for the measurement of lysosphingolipid content in cultured neurons. As a result, a sensitive method of fluorometric tracing has been devised and is described herein. The measurement of lysosphingolipid content in cultured neurons is based on the stable fluorescence-tagging procedure using 4-fluoro, 7-nitrobenzofuran (NBDZF) described by Nozowa et al J. Neutochem. 59:607-609, 1992). The procedure was applied to: resting neurons; neurons exposed to 100 µM metabotropic receptor agonist for 1 hour; resting neurons exogenously enriched in lysosphingolipids; and neurons exogenously enriched in lysosphingolipids and exposed to metabotropic receptor agonist for 1 hour. The neurons were scraped in batches of 10^7 (1 Petri dish, approximately 8 cm in diameter, is equivalent to 2 mg membrane protein) and subjected to anaylsis.
(§1) Total lipids were removed from the neuron samples by repeated extraction with chloroform:methanol (2:1, vol:vol). The lysosphingolipids were separated from total neuronal lipid in 90 ± 5 % recovery yield (n = 10) by the stepped chromatographic procedure of Van Veldhoven et al. (Anal. Biochem. 183:177-189, 1989). The recovered lysosphingolipids were stably tagged with NBDZF by the rapid procedure of Nozowa et al. (supra). The fluorescence tagged neuronal lysosphingolipids were separated in parallel with reference standards NBDZF-Sph, NBDZF-Psy, and NBDZF-Lsm on high performance silica gel thin layer chromatography plates with acetonitrile:H2O (10:0.5, vol:vol). The highly fluorescent, well separated bands were scraped from the plate. The fluorescence tagged lysosphingolipids are eluted from the scraped silica gel with methanol:1 N HCl (1:0.02, vol:vol). The fluorescence tagged lysosphingolipid eluates were quantitated against reference standards by fluorescence measurement in a Perkin-Elmer LS-5 Fluorescence Spectrometer.
(§2) Sphingolipid content of neurons exposed to sphingosine, lysocerebroside, and lysosphingomyelin was examined as follows. A Petri dish containing approximately 10^7 neurons was incubated with 5 µCi [^3H]myo-Ins in 3 ml DMEM overnight to prelabel the phosphoinositide InsP3 may contain. The neurons were washed with PBS and 3 ml of PBS containing 4.5 g/l glucose was added. Preparations of sphingosine, lysocerebroside, lysosphingomyelin (Sigma Chemical Co., St. Louis, MO) and combinations of each were prepared as the hydrochloride salt dissolved in PBS. The lysosphingolipids were added to the Petri dishes to produce a concentration ranging from 0 - 150 µM. The dishes were held at room temperature for 0.5, 1, or 2 hours, then washed with PBS and incubated with 5 Units of trypsin in glucose/PBS for 4 hours at 37°C. Trypsinization removes non-specifically bound lysosphingolipids that may adhere to extracellular plasma membrane protein domains. Non-specific adherence between cationic micelles of lysosphingolipids and the neuronal glycocalyx is avoided by performing the experiments with lysosphingolipid concentrations below the critical micelle concentration. Neurons were analyzed for lysosphingolipid content as described above.

Intact neurons = assay: Lysosphingolipid loading of intact neurons (fluorescence tagging); type: in vitro ADME, chick; conditions: 10 μmolar exposure
From the text: as §1
as §2, with “The dishes were held at room temperature for 0.5, 1, or 2 hours, then washed with PBS and incubated with 5 Units of trypsin in glucose/PBS for 4 hours at 37°C.” left out
The suspended plasma membrane preparation was apportioned into 250 µl samples, each providing approximately 100 µg membrane protein. Sphingosine, psychosine, and lysosphingomyelin were added to each plasma membrane sample. The samples were held at room temperature for 3 hours, centrifuged at 300,000 X g for 30 minutes, and the supernatant discarded. Samples were analyzed for lysosphingolipid loading (i.e., membrane lysosphingolipid content following exposure to exogenous sphingolipid) by fluorescence tagging. Table 2 provides the results of exposure of plasma membrane samples to 10 µM lysosphingolipids. Values are reported in pmoles lysosphingolipid/mg plasma membrane protein. Values obtained for isolated plasma membrane and intact neurons are compared.

[1] = system: phospholipase C isoforms beta, delta, and gamma; assay: Free phospholipase C activity in solution (kinetics); type: biochemical; conditions: for KM / diminution in Vmax / increase in calcium ion concentration required for optimal activity: 10 µM lysocerebroside or 5 µM lysosphingomyelin
Procedure: The effects of sphingosine, lysocerebroside, and lysosphingomyelin on the kinetics of pure, immunologically isolated phospholipase C isoforms beta, delta, and gamma (which are commercially available) was examined. For each isoform, 10 µM sphingosine was added to a reaction medium consisting of 1 µg phospholipase C isoform/ml, Tris-malate buffer (50 mM, pH 7.0) containing 100 µM phosphatidyl inositol bis-phosphate tri-ammonium salt, 0.01 µCi tritium labeled phosphatidyl inositol bis-phosphate, 100 mM NaCl, 10 mM CaCl2, and 5 mM 2-merceptoethanol.

[2] = system: primary chick cortical neurons; assay: Phosphoinositide hydrolysis assay (InsP3 production) in cultured primary cortical neurons; type: cell-based; conditions: for Ins-P-n with Lysosphinogolipid Modulator, agonist Aspartate: 100 μM Aspartate, 20 min, neurons preincubated with 20 μM modulator (or 20 μM + 20 μM Sphingosine), washed, normalized to control = 1.00; for enhancement of InsP3 level caused by sphingosine or by metabotropic glutamate receptor agonists / InsP3 signalling: cortical neurons; for InsP3 signalling: as shown in Table 1
Procedure: The neurons were seeded in 24-well plastic tissue culture plates that had been coated with L-polylysine.
Receptor-stimulated and basal unstimulated hydrolysis of phosphoinositides was measured by the following procedure. […] The cells were then washed twice with 1 ml Dulbecco's phosphate-buffered saline (PBS) and 0.5 ml of PBS containing 4.5 g/L glucose was added. Sphingosine, psychosine, lysosulphatide, or lysosphingomyelin, prepared as the hydrochloride salt dissolved in water, were then added to produce the desired extracellular concentration in specific wells, […] The cells were then washed twice with 1 ml PBS, and pre-incubated for 15 minutes at 37°C with 0.5 ml PBS containing 10 mM LiCl and the compound to be tested was added. […] The tubes were vortexed thoroughly, then centrifuged at 500 x g for 5 minutes to separate the aqueous and chloroform phases. For each sample, a 1.5-ml aliquot of the upper (aqueous) phase was applied to a small column containing BioRad AG1X8 resin (formate form). Free [^3H]inositol and [^3H]glycerophosphoinositol were washed through the column with 5 ml of a solution containing 5 mM sodium borate and 60 mM sodium formate. The total phosphorylated [^3H] inositol fraction was eluted from the column for radiometric scintillation spectrometry analysis with 3 ml 1.0 M ammonium formate/0.1 M formic acid.
In addition, a 0.5 ml aliquot of the lower (chloroform) phase of each sample was analyzed radiometrically by scintillation spectrometry in order to determine the quantity of lipid-bound [^3H]myo-inositol. Estimation of phosphoinositide hydrolysis by phospholipase C is based upon the quantity of [^3H]inositol phosphates produced, and is expressed as the percentage of the latter relative to total free and componential [^3H]inositol (dpm ammonium formate + dpm chloroform fractions).

Structure (SMILES)	content of sphingosine in the neurons (cultured neurons) [pmoles/mg protein]	lysosphingolipid content, 0 hours of incubation (Intact neurons)	lysosphingolipid content, 0.5 hours of incubation (Intact neurons)	lysosphingolipid content, 1.0 hours of incubation (Intact neurons)	lysosphingolipid content, 2.0 hours of incubation (Intact neurons)	lysosphingolipid content, 3.0 hours of incubation (Intact neurons)	KM [1]	diminution in Vmax [1]	increase in calcium ion concentration required for optimal activity [1] [fold]	Ins-P-n with Lysosphinogolipid Modulator, agonist Aspartate [2]	enhancement of InsP3 level caused by sphingosine or by metabotropic glutamate receptor agonists [2]	InsP3 signalling [2]	KM for substrate phosphatidylinositol bis-phosphate ([1]; 10 µM sphingosine)	calcium ion concentration required for optimal activity ([1]; 10 µM sphingosine)	increase in Vmax ([1]; 10 µM sphingosine, each isoform)	basal, unstimulated InsP3 level in cortical neurons [2]
CCCCCCCCCCCCC/C=C/[C@@H](O)[C@@H](N)CO[C@@H]1O[C@H](CO)[C@H](O)[C@H](O)[C@H]1O [psychosine]	220 ± 45	25±5 pmoles lysosphingolipid/mg plasma membrane protein	35±15 pmoles lysosphingolipid/mg plasma membrane protein	45±10 pmoles lysosphingolipid/mg plasma membrane protein	80±5 pmoles lysosphingolipid/mg plasma membrane protein	80±5 pmoles lysosphingolipid/mg plasma membrane protein	no change	60% ± 10%	5	1.00±0.06^e	blocked this enhancement	potently modulated InsP3 signalling	–	–	–	–
CCCCCCCCCCCCC/C=C/[C@@H](O)[C@@H](N)COP(=O)([O-])OCC[N+](C)(C)C [lysosphingomyelin, sphingosyl phosphorylcholine]	105 ± 0.15	5±1 pmoles lysosphingolipid/mg plasma membrane protein	8±2 pmoles lysosphingolipid/mg plasma membrane protein	20±5 pmoles lysosphingolipid/mg plasma membrane protein	45±5 pmoles lysosphingolipid/mg plasma membrane protein	55±15 pmoles lysosphingolipid/mg plasma membrane protein	no change	60% ± 10%	5	1.00±0.06^e	blocked this enhancement	potently modulated InsP3 signalling	–	–	–	–
CCCCCCCCCCCCC/C=C/[C@@H](O)[C@@H](N)CO [sphingosine]	430 ± 70	85±15 pmoles lysosphingolipid/mg plasma membrane protein	85±20 pmoles lysosphingolipid/mg plasma membrane protein	110±15 pmoles lysosphingolipid/mg plasma membrane protein	105±5 pmoles lysosphingolipid/mg plasma membrane protein	115±15 pmoles lysosphingolipid/mg plasma membrane protein	–	–	–	–	–	potently modulated InsP3 signalling	no effect	a decrease	approximately 2 fold	tonically enhanced
